molecular target: TrkA (Homo sapiens (Human), UniProt P04629); assay: TrkA Omnia Assay; format: biochemical; conditions: averaged IC50; 20 nM enzyme, 500 μM ATP, 10 μM peptide substrate
Summary of the method: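 Continuous fluorescent kinase read-out (ex 360 nm, em 485 nm) over 70 min, with initial rates fitted to 4- or 5-parameter logistic curves for IC50. Final conditions: 500 μM ATP, 10 μM Omnia Tyr Peptide #4, 20 nM TrkA, MOPS pH 7.5 buffer with MgCl2 and Triton X-100; enzyme and compound preincubated 10 min at ambient temperature.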

TrkA, sequence (P04629 33-796): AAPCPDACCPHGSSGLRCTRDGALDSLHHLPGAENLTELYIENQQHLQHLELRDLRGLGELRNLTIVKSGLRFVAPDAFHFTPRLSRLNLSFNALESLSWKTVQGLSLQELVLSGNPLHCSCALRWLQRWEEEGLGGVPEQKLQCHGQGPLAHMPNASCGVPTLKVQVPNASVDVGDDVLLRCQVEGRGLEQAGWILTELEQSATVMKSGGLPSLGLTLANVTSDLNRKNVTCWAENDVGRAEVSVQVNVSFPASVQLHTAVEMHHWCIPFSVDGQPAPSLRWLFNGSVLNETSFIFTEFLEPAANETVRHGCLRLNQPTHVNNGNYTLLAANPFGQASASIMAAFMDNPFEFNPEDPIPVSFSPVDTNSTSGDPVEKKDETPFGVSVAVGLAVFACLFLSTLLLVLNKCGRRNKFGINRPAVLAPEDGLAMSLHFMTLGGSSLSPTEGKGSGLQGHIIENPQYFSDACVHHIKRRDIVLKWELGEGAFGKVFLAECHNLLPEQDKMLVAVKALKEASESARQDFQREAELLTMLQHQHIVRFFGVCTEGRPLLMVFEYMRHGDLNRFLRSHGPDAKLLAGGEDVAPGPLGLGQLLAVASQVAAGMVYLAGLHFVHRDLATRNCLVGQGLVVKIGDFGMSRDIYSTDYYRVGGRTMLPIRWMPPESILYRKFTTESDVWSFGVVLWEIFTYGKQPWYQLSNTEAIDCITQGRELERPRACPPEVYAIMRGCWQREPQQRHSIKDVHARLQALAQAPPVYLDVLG

Row | IC50 | SMILES
1 | < 100 nM | CCOC(=O)c1nn(-c2ccccc2)c(NC(=O)N[C@@H]2CN(CCOC)C[C@H]2c2ccc(F)c(F)c2)c1Br [Example 381, ethyl 4-bromo-5-(3-((3S,4R)-4-(3,4-difluorophenyl)-1-(2-methoxyethyl)pyrrolidin-3-yl)ureido)-1-phenyl-1H-pyrazole-3-carboxylate]
2 | < 100 nM | COCCN1C[C@@H](NC(=O)Nc2c(C)c(-c3cnn(CCOC)c3)nn2-c2ccccc2)[C@H](c2ccc(F)cc2)C1 [Example 382, 1-((3S,4R)-4-(4-fluorophenyl)-1-(2-methoxyethyl)pyrrolidin-3-yl)-3-(1′-(2-methoxyethyl)-4-methyl-1-phenyl-1H,1′H-[3,4′-bipyrazol]-5-yl)urea]
3 | < 100 nM | COCCN1C[C@@H](NC(=O)Nc2c(C)c(-c3cnn(CCOC)c3)nn2-c2ccccc2)[C@H](c2cccc(F)c2)C1 [Example 383, 1-((3S,4R)-4-(3-fluorophenyl)-1-(2-methoxyethyl)pyrrolidin-3-yl)-3-(1′-(2-methoxyethyl)-4-methyl-1-phenyl-1H,1′H-[3,4′-bipyrazol]-5-yl)urea]
4 | < 100 nM | COCCN1C[C@@H](NC(=O)Nc2c(C)c(-c3cnn(C)n3)nn2-c2ccccc2)[C@H](c2cccc(F)c2)C1 [Example 384, 1-((3S,4R)-4-(3-fluorophenyl)-1-(2-methoxyethyl)pyrrolidin-3-yl)-3-(4-methyl-3-(2-methyl-2H-1,2,3-triazol-4-yl)-1-phenyl-1H-pyrazol-5-yl)urea]
5 | < 100 nM | COCCN1C[C@@H](NC(=O)Nc2c(C)c(-c3cnn(C)n3)nn2-c2ccccc2)[C@H](c2ccc(F)cc2)C1 [Example 385, 1-((3S,4R)-4-(4-fluorophenyl)-1-(2-methoxyethyl)pyrrolidin-3-yl)-3-(4-methyl-3-(2-methyl-2H-1,2,3-triazol-4-yl)-1-phenyl-1H-pyrazol-5-yl)urea]
6 | < 100 nM | COCCN1C[C@@H](NC(=O)Nc2c(C)c(OCCN3CCOCC3)nn2-c2ccccc2)[C@H](c2ccc(F)c(F)c2)C1 [Example 386, 1-((3S,4R)-4-(3,4-difluorophenyl)-1-(2-methoxyethyl)pyrrolidin-3-yl)-3-(4-methyl-3-(2-morpholinoethoxy)-1-phenyl-1H-pyrazol-5-yl)urea]
7 | < 100 nM | COCCN1C[C@@H](NC(=O)Nc2c(C)c(OCCN3C(=O)c4ccccc4C3=O)nn2-c2ccccc2)[C@H](c2ccc(F)c(F)c2)C1 [Example 387, 1-((3S,4R)-4-(3,4-difluorophenyl)-1-(2-methoxyethyl)pyrrolidin-3-yl)-3-(3-(2-(1,3-dioxoisoindolin-2-yl)ethoxy)-4-methyl-1-phenyl-1H-pyrazol-5-yl)urea]
8 | < 100 nM | COCCN1C[C@@H](NC(=O)Nc2c(C)c(OCCN3CCN(C(=O)OC(C)(C)C)CC3)nn2-c2ccccc2)[C@H](c2ccc(F)c(F)c2)C1 [Example 388, tert-butyl 4-(2-((5-(3-((3S,4R)-4-(3,4-difluorophenyl)-1-(2-methoxyethyl)pyrrolidin-3-yl)ureido)-4-methyl-1-phenyl-1H-pyrazol-3-yl)oxy)ethyl)piperazine-1-carboxylate]
9 | < 100 nM | COCCN1C[C@@H](NC(=O)Nc2c3ccccc3nn2-c2ccccc2)[C@H](c2ccccc2)C1 [Example 389]
10 | < 100 nM | COCCN1C[C@@H](NC(=O)Nc2c3ccccc3nn2-c2ccccc2)[C@H](c2ccc(F)c(F)c2)C1 [Example 390, 1-((3S,4R)-4-(3,4-difluorophenyl)-1-(2-methoxyethyl)pyrrolidin-3-yl)-3-(2-phenyl-2H-indazol-3-yl)urea]
11 | < 100 nM | COCCN1C[C@@H](NC(=O)Nc2c(C)c(OCc3ncn(C)n3)nn2-c2ccccc2)[C@H](c2ccc(F)c(F)c2)C1 [Example 391, 1-((3S,4R)-4-(3,4-difluorophenyl)-1-(2-methoxyethyl)pyrrolidin-3-yl)-3-(4-methyl-3-((1-methyl-1H-1,2,4-triazol-3-yl)methoxy)-1-phenyl-1H-pyrazol-5-yl)urea]
